Test results from PubChem BioAssay (NCI).
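Five compound concentrations were applied to cells in 96-well plates for 48 hours; endpoints were derived by simple linear interpolation of the resulting dose-response curve. GI50: concentration for 50% inhibition of growth. Definition used: TGI = concentration required for complete inhibition of growth.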

Key:
Assay in all cases: NCI anticancer screen, dose series, 48 h
786-0 renal = system: 786-0 renal
A498 renal = system: A498 renal
A549 NSCLC = system: A549 NSCLC
ACHN renal = system: ACHN renal
BT-549 breast = system: BT-549 breast
CAKI-1 renal = system: CAKI-1 renal
CCRF-CEM leukemia = system: CCRF-CEM leukemia
COLO 205 colon = system: COLO 205 colon
DU-145 prostate = system: DU-145 prostate
EKVX NSCLC = system: EKVX NSCLC
HCC-2998 colon = system: HCC-2998 colon
HCT-116 colon = system: HCT-116 colon
HCT-15 colon = system: HCT-15 colon
HL-60(TB) leukemia = system: HL-60(TB) leukemia
HOP-62 NSCLC = system: HOP-62 NSCLC
HOP-92 NSCLC = system: HOP-92 NSCLC
HS 578T breast = system: HS 578T breast
HT29 colon = system: HT29 colon
IGROV1 ovarian = system: IGROV1 ovarian
K-562 leukemia = system: K-562 leukemia
KM12 colon = system: KM12 colon
LOX IMVI melanoma = system: LOX IMVI melanoma
M14 melanoma = system: M14 melanoma
MALME-3M melanoma = system: MALME-3M melanoma
MCF7 breast = system: MCF7 breast
MDA-MB-231 breast = system: MDA-MB-231 breast
MDA-MB-435 = system: MDA-MB-435
MDA-MB-468 breast = system: MDA-MB-468 breast
MOLT-4 leukemia = system: MOLT-4 leukemia
NCI-H226 lung = system: NCI-H226 lung
NCI-H23 lung = system: NCI-H23 lung
NCI-H460 lung = system: NCI-H460 lung
NCI-H522 lung = system: NCI-H522 lung
NCI/ADR-RES ovarian = system: NCI/ADR-RES ovarian
OVCAR-3 ovarian = system: OVCAR-3 ovarian
OVCAR-4 ovarian = system: OVCAR-4 ovarian
OVCAR-5 ovarian = system: OVCAR-5 ovarian
OVCAR-8 ovarian = system: OVCAR-8 ovarian
PC-3 prostate = system: PC-3 prostate
RPMI-8226 leukemia = system: RPMI-8226 leukemia
RXF 393 renal = system: RXF 393 renal
SF-268 CNS = system: SF-268 CNS
SF-295 CNS = system: SF-295 CNS
SF-539 CNS = system: SF-539 CNS
SK-MEL-2 melanoma = system: SK-MEL-2 melanoma
SK-MEL-28 melanoma = system: SK-MEL-28 melanoma
SK-MEL-5 melanoma = system: SK-MEL-5 melanoma
SK-OV-3 ovarian = system: SK-OV-3 ovarian
SN12C renal = system: SN12C renal
SNB-19 CNS = system: SNB-19 CNS
SNB-75 CNS = system: SNB-75 CNS
SR leukemia = system: SR leukemia
SW-620 colon = system: SW-620 colon
T-47D breast = system: T-47D breast
TK-10 renal = system: TK-10 renal
U251 CNS = system: U251 CNS
UACC-257 melanoma = system: UACC-257 melanoma
UACC-62 melanoma = system: UACC-62 melanoma
UO-31 renal = system: UO-31 renal

SMILES: C/C(=N\N=C\c1ccc(Cl)c([N+](=O)[O-])c1)c1ccc2c(c1)Nc1ccccc1S2
- GI50 (786-0 renal): 26.5 µM
- TGI (786-0 renal): > 100 µM
- GI50 (A498 renal): 31 µM
- TGI (A498 renal): > 100 µM
- GI50 (A549 NSCLC): 12.2 µM
- TGI (A549 NSCLC): > 100 µM
- GI50 (ACHN renal): 14.4 µM
- TGI (ACHN renal): > 100 µM
- GI50 (BT-549 breast): 17.1 µM
- TGI (BT-549 breast): 91.8 µM
- GI50 (CAKI-1 renal): 13.7 µM
- TGI (CAKI-1 renal): > 100 µM
- GI50 (CCRF-CEM leukemia): 4.12 µM
- TGI (CCRF-CEM leukemia): > 100 µM
- GI50 (COLO 205 colon): 36.1 µM
- TGI (COLO 205 colon): > 100 µM
- GI50 (DU-145 prostate): 3.76 µM
- TGI (DU-145 prostate): > 100 µM
- GI50 (EKVX NSCLC): 5.85 µM
- TGI (EKVX NSCLC): > 100 µM
- GI50 (HCC-2998 colon): 5.08 µM
- TGI (HCC-2998 colon): 19.4 µM
- GI50 (HCT-116 colon): 4.44 µM
- TGI (HCT-116 colon): > 100 µM
- GI50 (HCT-15 colon): 9.1 µM
- TGI (HCT-15 colon): > 100 µM
- GI50 (HL-60(TB) leukemia): 16.9 µM
- TGI (HL-60(TB) leukemia): > 100 µM
- GI50 (HOP-62 NSCLC): 8.03 µM
- TGI (HOP-62 NSCLC): 41.3 µM
- GI50 (HOP-92 NSCLC): 12.2 µM
- TGI (HOP-92 NSCLC): 61 µM
- GI50 (HS 578T breast): 7.56 µM
- TGI (HS 578T breast): 62.3 µM
- GI50 (HT29 colon): 4.26 µM
- TGI (HT29 colon): > 100 µM
- GI50 (IGROV1 ovarian): 17.7 µM
- TGI (IGROV1 ovarian): > 100 µM
- GI50 (K-562 leukemia): 5.37 µM
- TGI (K-562 leukemia): > 100 µM
- GI50 (KM12 colon): 9.7 µM
- TGI (KM12 colon): > 100 µM
- GI50 (LOX IMVI melanoma): 24.8 µM
- TGI (LOX IMVI melanoma): > 100 µM
- GI50 (M14 melanoma): 72.4 µM
- TGI (M14 melanoma): > 100 µM
- GI50 (MALME-3M melanoma): 10.9 µM
- TGI (MALME-3M melanoma): 41.1 µM
- GI50 (MCF7 breast): 3.19 µM
- TGI (MCF7 breast): 30 µM
- GI50 (MDA-MB-231 breast): 14.3 µM
- TGI (MDA-MB-231 breast): > 100 µM
- GI50 (MDA-MB-435): 14.4 µM
- TGI (MDA-MB-435): > 100 µM
- GI50 (MDA-MB-468 breast): 1.58 µM
- TGI (MDA-MB-468 breast): 5.66 µM
- GI50 (MOLT-4 leukemia): 9.98 µM
- TGI (MOLT-4 leukemia): > 100 µM
- GI50 (NCI-H226 lung): 8.48 µM
- TGI (NCI-H226 lung): 41.9 µM
- GI50 (NCI-H23 lung): 6.83 µM
- TGI (NCI-H23 lung): 39.3 µM
- GI50 (NCI-H460 lung): 3.38 µM
- TGI (NCI-H460 lung): 20 µM
- GI50 (NCI-H522 lung): 11.6 µM
- TGI (NCI-H522 lung): > 100 µM
- GI50 (NCI/ADR-RES ovarian): 5.22 µM
- TGI (NCI/ADR-RES ovarian): 53.1 µM
- GI50 (OVCAR-3 ovarian): 4.46 µM
- TGI (OVCAR-3 ovarian): 22.5 µM
- GI50 (OVCAR-4 ovarian): 4.03 µM
- TGI (OVCAR-4 ovarian): > 100 µM
- GI50 (OVCAR-5 ovarian): > 100 µM
- TGI (OVCAR-5 ovarian): > 100 µM
- GI50 (OVCAR-8 ovarian): 6.09 µM
- TGI (OVCAR-8 ovarian): > 100 µM
- GI50 (PC-3 prostate): 3 µM
- TGI (PC-3 prostate): 23.3 µM
- GI50 (RPMI-8226 leukemia): 4.27 µM
- TGI (RPMI-8226 leukemia): > 100 µM
- GI50 (RXF 393 renal): 15.3 µM
- TGI (RXF 393 renal): 59 µM
- GI50 (SF-268 CNS): 23.8 µM
- TGI (SF-268 CNS): > 100 µM
- GI50 (SF-295 CNS): 7.73 µM
- TGI (SF-295 CNS): 65.3 µM
- GI50 (SF-539 CNS): 18.5 µM
- TGI (SF-539 CNS): 74.5 µM
- GI50 (SK-MEL-2 melanoma): 43.2 µM
- TGI (SK-MEL-2 melanoma): > 100 µM
- GI50 (SK-MEL-28 melanoma): 17.8 µM
- TGI (SK-MEL-28 melanoma): > 100 µM
- GI50 (SK-MEL-5 melanoma): 7.91 µM
- TGI (SK-MEL-5 melanoma): > 100 µM
- GI50 (SK-OV-3 ovarian): 37 µM
- TGI (SK-OV-3 ovarian): > 100 µM
- GI50 (SN12C renal): 44.3 µM
- TGI (SN12C renal): > 100 µM
- GI50 (SNB-19 CNS): 15.8 µM
- TGI (SNB-19 CNS): 53.6 µM
- GI50 (SNB-75 CNS): 15.7 µM
- TGI (SNB-75 CNS): 93.5 µM
- GI50 (SR leukemia): 3.49 µM
- TGI (SR leukemia): > 100 µM
- GI50 (SW-620 colon): 3.56 µM
- TGI (SW-620 colon): > 100 µM
- GI50 (T-47D breast): 6.56 µM
- TGI (T-47D breast): > 100 µM
- GI50 (TK-10 renal): 18 µM
- TGI (TK-10 renal): 94.4 µM
- GI50 (U251 CNS): 7.43 µM
- TGI (U251 CNS): 52.4 µM
- GI50 (UACC-257 melanoma): 9.51 µM
- TGI (UACC-257 melanoma): > 100 µM
- GI50 (UACC-62 melanoma): 15.1 µM
- TGI (UACC-62 melanoma): > 100 µM
- GI50 (UO-31 renal): 78.2 µM
- TGI (UO-31 renal): > 100 µM
